Test results taken from patent US20220324862A1, “PYRIDOPYRIMIDINONE COMPOUNDS” (Acerand Therapeutics (USA) Limited, priority 2021, published 2022).

The compounds below were run against T1, protein-protein interaction between SOS1 and KRAS-G12D (Homo sapiens, UniProt Q07889) (assay: HTRF Based Protein-Protein Interaction Assay). Conditions: HTRF; GST-SOS1 2.5 nM, KRAS-G12D 100 nM, GDP 10 uM; read-out: IC50 value, inhibition of SOS1/KRAS-G12D protein-protein interaction.
T1 construct: The purified GST-SOS1 catalytic domain (residues 564-1049) was first diluted in assay buffer; made in house; host or cells: E. coli BL21 (DE3) for SOS1; E. coli BL21 carrying a BirA plasmid for KRAS-G12D
T1 sequence (Q07889 564-1049): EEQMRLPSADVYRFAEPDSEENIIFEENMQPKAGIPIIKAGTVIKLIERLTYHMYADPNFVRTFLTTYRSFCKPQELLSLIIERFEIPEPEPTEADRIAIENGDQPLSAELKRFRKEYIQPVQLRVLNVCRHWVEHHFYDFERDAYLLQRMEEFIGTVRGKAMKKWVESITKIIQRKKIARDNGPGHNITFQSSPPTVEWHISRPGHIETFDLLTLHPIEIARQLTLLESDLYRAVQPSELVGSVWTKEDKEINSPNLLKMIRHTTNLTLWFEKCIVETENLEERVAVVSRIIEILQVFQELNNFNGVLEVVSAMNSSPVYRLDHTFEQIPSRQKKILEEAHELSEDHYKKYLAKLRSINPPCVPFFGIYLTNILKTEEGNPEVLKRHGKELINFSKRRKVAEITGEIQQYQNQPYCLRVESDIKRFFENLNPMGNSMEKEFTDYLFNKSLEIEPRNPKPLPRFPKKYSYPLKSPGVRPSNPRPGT
Assay type: binding
Excerpt: A KRAS-G12D and SOS1 binding/interaction assay was designed to measure the interaction between KRAS-G12D and SOS1 proteins. Utilizing HTRF (Homogeneous Time-Resolved Fluorescence) technology, the assay enabled simple and rapid characterization of compound and protein interaction in a high throughput format. This assay was used to examine potency of the compounds in inhibiting the protein-protein interaction between SOS1 and KRAS-G12D. […] Low IC50 values are indicative of high potency of the SOS1 inhibitor compound to disrupt SOS1 and Kras-G12D interaction.
Protein Expression and Purification. The corresponding gene sequence to human SOS1 (residues 564-1049, UniProt ID: Q07889; SEQ ID NO: 2) was synthesized and fused in frame with GST expression vector. After the desired sequence was confirmed, plasmid containing the sequence was transformed into the E. coli strain BL21 (DE3). Bacteria were growing at 37° C. in LB media containing 50 μg/ml Kanamycin to give OD600 of 0.6-0.8. Then 0.2 mM IPTG was added to induce protein expression for 16 hours at 17° C. Bacteria were harvested by centrifugation and stored at −80° C. Bacteria pellets were resuspended in lysis buffer (25 mM Tris-HCl, 500 mM NaCl, 2 mM DTT, 2.3% sucrose, 0.3% dextran-10, 1 mM PMSF, pH 7.5) and lysed using high-pressure homogenizer. The lysate was cleared by centrifugation for 30 minutes (12000 rpm at 4° C.). The supernatant containing GST-SOS1 fragment was purified sequentially through Glutathione column and gel filtration (Hiload 16/600 Superdex […] column, Cytiva). The purified GST-SOS1 fragment was confirmed by SDS-PAGE and stored in 25 mM Tris-HCl, 100 mM NaCl, 1 mM DTT, 2.3% sucrose, 0.3% dextran-10, pH 7.5 at −80° C.
Kras-G12D Protein Purification. The sequence corresponding to human KRAS-G12D (residues 1-169, UniProt P01116-2; SEQ ID NO: 1) was synthesized and fused in frame with His-AVI-TEV vector. The plasmid was transformed into the E. coli strain BL21 (containing a plasmid that can generate BirA enzyme). Bacteria were growing at 37° C. in TB media containing 100 μg/ml ampicillin and 50 μg/ml Kanamycin to give OD600 of 0.6-0.8. The 0.5 mM IPTG and 50 mg/l biotin were added to induce protein expression for 16 hours at 25° C. Bacteria were harvested by centrifugation and stored at −80° C. Bacteria pellets were re-suspended in lysis buffer (20 mM Tris-HCl, 500 mM NaCl, 5 mM MgCl2, 2 mM […], 5% glycerol, pH 8.0) and lysed using high-pressure homogenizer. The lysate was cleared by centrifugation for 30 minutes (12000 rpm at 4° C.). The supernatant containing HIS-AVI-TEV-KRAS-G12D fragment was purified sequentially through Ni-NTA column (SMART), Streptactin column (SMART), and gel filtration (Hiload 16/600 Superdex 75 pg, GE). The purified HIS-AVI-TEV-KRAS-G12D fragment was confirmed by SDS-PAGE and stored in 50 mM HEPES-NaOH, 100 mM NaCl, 1 mM DTT, 5 mM MgCl2, pH 7.5 at −80° C.
Protein-Protein Interaction Assay. An assay buffer containing 50 mM HEPES, pH 7.5, 50 mM NaCl, 0.01% Brij-35, 1 mM TCEP, 0.1% BSA was prepared, and concentration series of test compounds were generated spanning from 0.5 nM to 10 μM over 10 3-fold serial dilutions in a 384-well assay plate at a volume of 20 pL. The purified GST-SOS1 catalytic domain (residues 564-1049) was first diluted in assay buffer and 5 μl of SOS1 (final concentration 2.5 nM in assay mixture) was directly dispensed into compound plates. After a spin down at 1000 RPM for 30 seconds, the SOS1/compound mixture was incubated at 25° C. for 15 minutes to allow the reaction between SOS1 and the compound. A KRAS-G12D mixture was prepared by incubation of avi-tagged Kras-G12D (residue 1-169) and GDP in assay buffer containing 10 mM MgCl2 at room temperature for 10 minutes. A KRAS-G12D and GDP mixture (5 μL) was added to the assay plate (final KRAS-G12D was 100 nM and GDP was 10 uM). The plate was centrifuged at 1000 rpm for 30 sec and incubated at 25° C. for 60 minutes. […]

IC50, < 0.1 µM:
C#C[C@@H](Nc1nc(C)nc2cc(=O)n(C3(C#C)CC3)cc12)c1cccc(C(F)F)c1F [Compound 26, (R)-4-((1-(3-(difluoromethyl)-2-fluorophenyl)prop-2-yn-1-yl)amino)-6-(1-ethynlcyclopropyl)-2-methylpyrido [4,3-d]pyrimidin-7(6H)-one]
C#C[C@@H](Nc1nc(C)nc2cc(=O)n(C3CC(F)(F)C3)cc12)c1cccc(C(F)(F)F)c1C [Compound 11, (R)-6-(3,3-difluorocyclobutyl)-2-methyl-4-((1-(2-methyl-3-(trifluoromethyl)phenyl)prop-2-yn-1-yl)amino)pyrido[4,3-d]pyrimidin-7(6H)-one]
C#C[C@@H](Nc1nc(C)nc2cc(=O)n([C@H]3C[C@H](F)C3)cc12)c1cccc(C(F)(F)F)c1C [Compound 10, 6-((1S,3S)-3-fluorocyclobutyl)-2-methyl-4-(((R)-1-(2-methyl-3-(trifluoromethyl)phenyl)prop-2-yn-1-yl)amino)pyrido[4,3-d]pyrimidin-7(6H)-one]
C#C[C@@H](Nc1nc(C)nc2cc(=O)n(C3CC4(C3)CN(C)C4)cc12)c1cccc(C(F)F)c1C [Compound 38, (R)-4-((1-(3-(difluoromethyl)-2-methylphenyl)prop-2-yn-1-yl)amino)-2-methyl-6-(2-methyl-2-azaspiro[3.3]heptan-6-yl)pyrido[4,3-d]pyrimidin-7(6H)-one]
C=C[C@@H](Nc1nc(C)nc2cc(=O)n(C3(C)CC3)cc12)c1cccc(C(F)(F)F)c1C [Compound 22, (R)-2-methyl-4-((1-(2-methyl-3-(trifluoromethyl)phenyl)allyl)amino)-6-(1-methylcyclopropyl)pyrido[4,3-d]pyrimidin-7(6H)-one]
C#C[C@@H](Nc1ncnc2c1cc(C1(F)CCN(C(C)=O)CC1)c(=O)n2C)c1cccc(C(F)F)c1F [Compound 47, 6-(1-acetyl-4-fluoropiperidin-4-yl)-4-{[(1R)-1-[3-(difluoromethyl)-2-fluorophenyl]prop-2-yn-1-yl]amino}-8-methyl-7H,8H-pyrido[2,3-d]pyrimidin-7-one]
C#C[C@@H](Nc1nc(C)nc2cc(=O)n(C3CC(F)(F)C3)cc12)c1cccc(C(F)F)c1F [Compound 29, (R)-6-(3,3-difluorocyclobutyl)-4-((1-(3-(difluoromethyl)-2-fluorophenyl)prop-2-yn-1-yl)amino)-2-methylpyrido[4,3-d]pyrimidin-7(6H)-one]
C#C[C@@H](Nc1nc(C)nc2cc(=O)n(C(C)C(F)(F)F)cc12)c1cccc(C(F)(F)F)c1C (mixture of isomers) [Compound 8, 2-methyl-4-(((R)-1-(2-methyl-3-(trifluoromethyl)phenyl)prop-2-yn-1-yl)amino)-6-(1,1,1-trifluoropropan-2-yl)pyrido[4,3-d]pyrimidin-7(6H)-one]
C#C[C@@H](Nc1nc(C)nc2cc(=O)n(C34CC(C3)C4)cc12)c1cccc2c1CCC2(F)F [Compound 2, (R)-6-(bicyclo[1,1,1]pentan-1-yl)-4-((1-(1,1-difluoro-2,3-dihydro-1H-inden-4-yl)prop-2-yn-1-yl)amino)-2-methylpyrido[4,3-d]pyrimidin-7(6H)-one]
C#C[C@@H](Nc1nc(C)nc2cc(=O)n(C3(C#N)CC3)cc12)c1cccc(C(F)(F)F)c1C [Compound 6, (R)-1-(2-methyl-4-((1-(2-methyl-3-(trifluoromethyl)phenyl)prop-2-yn-1-yl)amino)-7-oxopyrido[4,3-d]pyrimidin-6(7H)-yl)cyclopropane-1-carbonitrile]
C#C[C@@H](Nc1nc(C)nc2cc(=O)n(C3(C)CC3)cc12)c1cccc(C(C)(F)F)c1F [Compound 19, (R)-4-((1-(3-(1,1-difluoroethyl)-2-fluorophenyl)prop-2-yn-1-yl)amino)-2-methyl-6-(1-methylcyclopropyl)pyrido[4,3-d]pyrimidin-7(6H)-one]
C#C[C@@H](Nc1nc(C)nc2c(F)c(=O)n(C3(C(F)F)CC3)cc12)c1cccc(C(F)F)c1F [Compound 27, (R)-4-((1-(3-(difluoromethyl)-2-fluorophenyl)prop-2-yn-1-yl)amino)-6-(1-(difluoromethyl)cyclopropyl)-8-fluoro-2-methylpyrido[4,3-d]pyrimidin-7(6H)-one]
C#C[C@@H](Nc1nc(C)nc2cc(=O)n(C3(C4CCOC4)CC3)cc12)c1cccc(C(F)(F)F)c1C (stereo partly drawn) [Compound 34, 2-methyl-4-(((R)-1-(2-methyl-3-(trifluoromethyl)phenyl)prop-2-yn-1-yl)amino)-6-(1-(tetrahydrofuran-3-yl)cyclopropyl)pyrido[4,3-d]pyrimidin-7(6H)-one]
C#C[C@@H](Nc1nc(C)nc2cc(=O)n(C3(C)CC3)cc12)c1cccc(C(F)(F)F)c1C [Compound 18, (R)-2-methyl-4-((1-(2-methyl-3-(trifluoromethyl)phenyl)prop-2-yn-1-yl)amino)-6-(1-methylcyclopropyl)pyrido[4,3-d]pyrimidin-7(6H)-one]
